Series [1] concerns Rattus norvegicus. The experiment in a line: Trough concentration in Sprague-Dawley rat assessed as atazanavir at 3 mg/kg, po equiv of atazanavir at 24 hrs by UPLC/MS/MS method. The format is ADME, organism-based. Conditions: in vivo; for Cmin: BLD = below limit of detection.
Series [2] can be described thus: Half life of the compound in phosphate buffer at pH 6.5 at 37 degC after 24 hrs by UPLC method. The format is physicochemical.
Series [3] is described as follows: Half life in rat whole blood at 1 uM after 5 to 90 mins by UPLC-MS/MS method. The format is ADME, tissue-based.
Series [4] deals with Rattus norvegicus. The series is described as follows: Oral bioavailability in Sprague-Dawley rat assessed as atazanavir at 3 mg/kg equiv of atazanavir after 0.25 to 24 hrs by UPLC/MS/MS method relative to atazanavir. Type of series: ADME, organism-based. The conditions noted are these: in vivo.
A short description of series [5]: Half life of the compound in acetate buffer at pH 4 at 37 degC after 24 hrs by UPLC method. The format is physicochemical.
Series [6] deals with Rattus norvegicus. The series is described as follows: Ratio of AUClast in Sprague-Dawley rat at 3 mg/kg, po equiv of atazanavir to AUC in Sprague-Dawley rat assessed as atazanavir at 3 mg/kg, po equiv of atazanavir. The format is ADME, organism-based. Conditions: in vivo.
The subject of series [7] is Rattus norvegicus. The experiment in a line: Tmax in Sprague-Dawley rat assessed as atazanavir at 3 mg/kg, po equiv of atazanavir after 0.25 to 24 hrs by UPLC/MS/MS method. Type of series: ADME, organism-based. The conditions noted are these: in vivo.
The nature of series [8]: Solubility of the compound in phosphate buffer at pH 6.5 at 25 degC by UPLC method. The format is physicochemical.
The nature of series [9]: Solubility of the compound in acetate buffer at pH 4 at 25 degC by UPLC method. Type of series: physicochemical.
Series [10] in a line: Half life in rat hepatocytes at 1 uM after 5 to 120 mins by UPLC-MS/MS method. Type of series: ADME, cell-based, Hepatocyte.
Series [11] deals with Rattus norvegicus. The experiment in a line: AUClast in Sprague-Dawley rat assessed as atazanavir at 3 mg/kg, po equiv of atazanavir after 0.25 to 24 hrs by UPLC/MS/MS method. The format is ADME, organism-based. More on the design: time upper 24 hr, dose 3 mg/kg, time lower 0.25 hr, route oral. The conditions noted are these: in vivo.
Series [12] deals with Rattus norvegicus. The experiment in a line: Cmax in Sprague-Dawley rat assessed as atazanavir at 3 mg/kg, po equiv of atazanavir after 0.25 to 24 hrs by UPLC/MS/MS method. Type of series: ADME, organism-based. Details: dose 3 mg/kg, route oral. The conditions noted are these: in vivo.
The nature of series [13]: Half life of the compound in 0.1 N aqueous HCl at pH 1 at 37 degC after 24 hrs by UPLC method. Type of series: physicochemical.
A short description of series [14]: Solubility of the compound in 0.1 N aqueous HCl at pH 1 at 25 degC by UPLC method. Type of series: physicochemical.
Series [15] in a line: Efflux ratio of apparent permeability across basolateral to apical over apical to basolateral side in human Caco2 cells. The format is ADME, cell-based. Conditions: Caco-2.
The nature of series [16]: Apparent permeability across basolateral to apical side in human Caco2 cells. Type of series: ADME, cell-based. Conditions: Caco-2.
A short description of series [17]: Apparent permeability across apical to basolateral side in human Caco2 cells. Type of series: ADME, cell-based. The conditions noted are these: Caco-2. (Caco-2 cells form a polarised layer with tight junctions and transporters.)
Series [18] is described as follows: Half life of the compound in phosphate buffer at pH 7.4 at 37 degC after 24 hrs by UPLC method. The format is physicochemical.

What is called half-life is the time in which the quantity being followed falls by half. Broadly, the Tmax is the time at which the peak concentration occurs. Broadly, the solubility is the concentration that dissolves in the medium under given conditions. For orientation: Cmax means the highest concentration seen after dosing. One may read the efflux ratio as the permeability from basolateral to apical divided by that in the opposite direction, in the common usage. One may read the Papp B→A as the apparent permeability from the basolateral to the apical side of a cell layer. The term Papp A→B denotes the apparent permeability from the apical to the basolateral side of a cell layer.

With `COC(=O)N[C@H](C(=O)NN(Cc1ccc(-c2ccccn2)cc1)C[C@H](OC(=O)[C@@H](NC(=O)OC)C(C)(C)C)[C@H](Cc1ccccc1)NC(=O)OCc1oc(=O)oc1C)C(C)(C)C`, in the series on Rattus norvegicus [1] (read-out: Cmin), the concentration was found to be 0.3 nM. Also, the values for the half-life in series [2], in series [5] and in series [13] were 120 h, above 500 h and above 500 h, respectively. The half-life at 1 µM in [3] and in series [10] was below 0.0833 h in each case. Besides, the F in the series on Rattus norvegicus [4] was 10.1%. Also, the “Ratio AUC” value in the series on Rattus norvegicus [6] came to 0.1. Moreover, the Tmax in the series on Rattus norvegicus [7] worked out at 1.3 h. For the same compound, the figures for the solubility in [8], in series [9] and in series [14] were below 1 µg/mL, below 1 µg/mL and above 1800 µg/mL, respectively. Besides, the AUClast in the series with Rattus norvegicus [11] worked out at 0.194 µM·h. The maximum concentration (Cmax) in the series with Rattus norvegicus [12] was found to be 180 nM.
Consider `COC(=O)N[C@H](C(=O)NN(Cc1ccc(-c2ccccn2)cc1)C[C@H](OC(=O)[C@@H](NC(=O)OC)C(C)(C)C)[C@@H](N)Cc1ccccc1)C(C)(C)C.Cl.Cl`, for which, in [15], the efflux ratio was 15. Further, the basolateral-to-apical permeability (Papp B→A) in [16] is 34.8 ×10⁻⁶ cm/s. Also, the Papp A→B in [17] is 2.3 ×10⁻⁶ cm/s. In the series with Rattus norvegicus [1], the Cmin result was “Bld”. Further, the half-life in series [2] is 6.6 h; in [5], 334 h; in series [13] it was 376 h. For the same compound, the half-life at 1 µM in [3] was above 2 h; in [10] it was 1.32 h. Moreover, in the series on Rattus norvegicus [4], the F is listed as 0.83%. In the series with Rattus norvegicus [6], the “Ratio AUC” value worked out at 4.9. In addition, the Tmax in the series on Rattus norvegicus [7] came out at 0.4 h. Also, the solubility was above 400 µg/mL in [9] and above 900 µg/mL in [14]. In addition, in the series on Rattus norvegicus [11], the AUClast is 0.016 µM·h. In addition, in the series with Rattus norvegicus [12], the peak concentration (Cmax) was 8 nM.
In the case of `COC(=O)N[C@H](C(=O)NN(Cc1ccc(-c2ccccn2)cc1)C[C@H](OC(=O)[C@@H](NC(=O)OC)C(C)(C)C)[C@H](Cc1ccccc1)NC(=O)OCOC(=O)[C@@H](N)C(C)C)C(C)(C)C.Cl.Cl`, the Cmin result with Rattus norvegicus [1] was “Bld”. Moreover, the half-life in [2] was 6.6 h; in [5], 334 h; in series [18], 1.8 h; in [13], above 500 h. For the same compound, the figures for the half-life at 1 µM in series [3] and in series [10] were 0.333 h and below 0.0833 h, respectively. In the series on Rattus norvegicus [4], the F is 4.3%. The Tmax with Rattus norvegicus [7] amounted to 0.4 h. In addition, the solubility in series [9] is above 1500 µg/mL; in series [14], above 1800 µg/mL. In the series with Rattus norvegicus [11], the AUClast turned out to be 0.083 µM·h. Also, in the series with Rattus norvegicus [12], the Cmax stood at 56 nM.

Values taken from ChEMBL document CHEMBL4184322, “Coupling of an Acyl Migration Prodrug Strategy with Bio-activation To Improve Oral Delivery of the HIV-1 Protease Inhibitor Atazanavir” (J Med Chem, 2018).
